# From the supplement of paper PMC10307832
# Legend:
# Experiment in all cases: relative viability (nuclei count vs DMSO), 5 days (fraction); higher = more cells survive
# NCI-H838 = system: NCI-H838
# Summary of the method: (§1)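 Dosing by pin tool came one day after lung cancer cell lines were seeded in 1536-well plates, using either one drug or a fixed anchor-drug dose plus five library-drug doses (not always all listed) in √10 steps. After 5 days, nuclei were counted on 4× images. Relative viability is treated-well nuclei count divided by vehicle-well nuclei count, and values are medians of duplicate plates.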
# HARA = system: HARA
# Summary of the method: as §1
# BEN = system: BEN
# Summary of the method: as §1
# NCI-H441 = system: NCI-H441
# Summary of the method: as §1
# NCI-H2126 = system: NCI-H2126
# Summary of the method: as §1
# NCI-H23 = system: NCI-H23
# Summary of the method: as §1
# NCI-H2023 = system: NCI-H2023
# Summary of the method: as §1
# NCI-H3122 = system: NCI-H3122
# Summary of the method: as §1
# NCI-H2347 = system: NCI-H2347
# Summary of the method: as §1
# LCLC-103H = system: LCLC-103H
# Summary of the method: as §1
# NCI-H647 = system: NCI-H647
# Summary of the method: as §1
# 201T = system: 201T
# Summary of the method: as §1
# NCI-H596 = system: NCI-H596
# Summary of the method: as §1
# LOU-NH91 = system: LOU-NH91
# Summary of the method: as §1
# EMC-BAC-2 = system: EMC-BAC-2
# Summary of the method: as §1
# NCI-H1666 = system: NCI-H1666
# Summary of the method: as §1
# NCI-H2009 = system: NCI-H2009
# Summary of the method: as §1
# NCI-H2087 = system: NCI-H2087
# Summary of the method: as §1
# NCI-H727 = system: NCI-H727
# Summary of the method: as §1
# NCI-H1395 = system: NCI-H1395
# Summary of the method: as §1
# HCC-44 = system: HCC-44
# Summary of the method: as §1
# NCI-H650 = system: NCI-H650
# Summary of the method: as §1
# NCI-H1993 = system: NCI-H1993
# Summary of the method: as §1
smiles,measurement,setting,value
NC(=O)Nc1cc(-c2cccc(F)c2)sc1C(=O)N[C@H]1CCCNC1 [AZD7762] + N=C(N)NC(=N)NCCc1ccccc1 [Phenformin] (partner 250 µM),relative viability,NCI-H838; first compound 0.01 µM,0.538
same,relative viability,NCI-H838; first compound 0.03162 µM,0.566
same,relative viability,NCI-H838; first compound 0.1 µM,0.669
same,relative viability,NCI-H838; first compound 0.3162 µM,0.524
same,relative viability,NCI-H838; first compound 1 µM,0.164
same,relative viability,HARA; first compound 0.01 µM,0.569
same,relative viability,HARA; first compound 0.03162 µM,0.509
same,relative viability,HARA; first compound 0.1 µM,0.501
same,relative viability,HARA; first compound 0.3162 µM,0.282
same,relative viability,HARA; first compound 1 µM,0.138
same,relative viability,BEN; first compound 0.01 µM,0.316
same,relative viability,BEN; first compound 0.03162 µM,0.271
same,relative viability,BEN; first compound 0.1 µM,0.222
same,relative viability,BEN; first compound 0.3162 µM,0.266
same,relative viability,BEN; first compound 1 µM,0.245
same,relative viability,NCI-H441; first compound 0.01 µM,1.05
same,relative viability,NCI-H441; first compound 0.03162 µM,0.732
same,relative viability,NCI-H441; first compound 0.1 µM,0.91
same,relative viability,NCI-H441; first compound 0.3162 µM,1.04
same,relative viability,NCI-H441; first compound 1 µM,0.618
same,relative viability,NCI-H2126; first compound 0.01 µM,0.513
same,relative viability,NCI-H2126; first compound 0.03162 µM,0.593
same,relative viability,NCI-H2126; first compound 0.1 µM,0.545
same,relative viability,NCI-H2126; first compound 0.3162 µM,0.536
same,relative viability,NCI-H2126; first compound 1 µM,0.462
same,relative viability,NCI-H23; first compound 0.01 µM,0.813
same,relative viability,NCI-H23; first compound 0.03162 µM,0.831
same,relative viability,NCI-H23; first compound 0.1 µM,0.808
same,relative viability,NCI-H23; first compound 0.3162 µM,0.654
same,relative viability,NCI-H23; first compound 1 µM,0.434
same,relative viability,NCI-H2023; first compound 0.01 µM,0.446
same,relative viability,NCI-H2023; first compound 0.03162 µM,0.394
same,relative viability,NCI-H2023; first compound 0.1 µM,0.255
same,relative viability,NCI-H2023; first compound 0.3162 µM,0.171
same,relative viability,NCI-H2023; first compound 1 µM,0.1
same,relative viability,NCI-H3122; first compound 0.01 µM,0.389
same,relative viability,NCI-H3122; first compound 0.03162 µM,0.412
same,relative viability,NCI-H3122; first compound 0.1 µM,0.416
same,relative viability,NCI-H3122; first compound 0.3162 µM,0.341
same,relative viability,NCI-H3122; first compound 1 µM,0.317
same,relative viability,NCI-H2347; first compound 0.01 µM,0.426
same,relative viability,NCI-H2347; first compound 0.03162 µM,0.365
same,relative viability,NCI-H2347; first compound 0.1 µM,0.51
same,relative viability,NCI-H2347; first compound 0.3162 µM,0.483
same,relative viability,NCI-H2347; first compound 1 µM,0.371
same,relative viability,LCLC-103H; first compound 0.01 µM,0.376
same,relative viability,LCLC-103H; first compound 0.03162 µM,0.35
same,relative viability,LCLC-103H; first compound 0.1 µM,0.352
same,relative viability,LCLC-103H; first compound 0.3162 µM,0.312
same,relative viability,LCLC-103H; first compound 1 µM,0.339
same,relative viability,NCI-H647; first compound 0.01 µM,0.495
same,relative viability,NCI-H647; first compound 0.03162 µM,0.445
same,relative viability,NCI-H647; first compound 0.1 µM,0.494
same,relative viability,NCI-H647; first compound 0.3162 µM,0.315
same,relative viability,NCI-H647; first compound 1 µM,0.106
same,relative viability,201T; first compound 0.01 µM,0.465
same,relative viability,201T; first compound 0.03162 µM,0.406
same,relative viability,201T; first compound 0.1 µM,0.453
same,relative viability,201T; first compound 0.3162 µM,0.495
same,relative viability,201T; first compound 1 µM,0.442
same,relative viability,NCI-H596; first compound 0.01 µM,0.701
same,relative viability,NCI-H596; first compound 0.03162 µM,0.836
same,relative viability,NCI-H596; first compound 0.1 µM,0.641
same,relative viability,NCI-H596; first compound 0.3162 µM,0.809
same,relative viability,NCI-H596; first compound 1 µM,0.673
same,relative viability,LOU-NH91; first compound 0.01 µM,0.783
same,relative viability,LOU-NH91; first compound 0.03162 µM,0.76
same,relative viability,LOU-NH91; first compound 0.1 µM,0.717
same,relative viability,LOU-NH91; first compound 0.3162 µM,0.772
same,relative viability,LOU-NH91; first compound 1 µM,0.525
same,relative viability,EMC-BAC-2; first compound 0.01 µM,0.52
same,relative viability,EMC-BAC-2; first compound 0.03162 µM,0.581
same,relative viability,EMC-BAC-2; first compound 0.1 µM,0.542
same,relative viability,EMC-BAC-2; first compound 0.3162 µM,0.448
same,relative viability,EMC-BAC-2; first compound 1 µM,0.474
same,relative viability,NCI-H1666; first compound 0.01 µM,0.549
same,relative viability,NCI-H1666; first compound 0.03162 µM,0.596
same,relative viability,NCI-H1666; first compound 0.1 µM,0.532
same,relative viability,NCI-H1666; first compound 0.3162 µM,0.554
same,relative viability,NCI-H1666; first compound 1 µM,0.467
same,relative viability,NCI-H2009; first compound 0.01 µM,0.496
same,relative viability,NCI-H2009; first compound 0.03162 µM,0.535
same,relative viability,NCI-H2009; first compound 0.1 µM,0.535
same,relative viability,NCI-H2009; first compound 0.3162 µM,0.543
same,relative viability,NCI-H2009; first compound 1 µM,0.439
same,relative viability,NCI-H2087; first compound 0.01 µM,0.434
same,relative viability,NCI-H2087; first compound 0.03162 µM,0.513
same,relative viability,NCI-H2087; first compound 0.1 µM,0.566
same,relative viability,NCI-H2087; first compound 0.3162 µM,0.553
same,relative viability,NCI-H2087; first compound 1 µM,0.554
same,relative viability,NCI-H727; first compound 0.01 µM,0.465
same,relative viability,NCI-H727; first compound 0.03162 µM,0.548
same,relative viability,NCI-H727; first compound 0.1 µM,0.439
same,relative viability,NCI-H727; first compound 0.3162 µM,0.398
same,relative viability,NCI-H727; first compound 1 µM,0.262
same,relative viability,NCI-H1395; first compound 0.01 µM,0.471
same,relative viability,NCI-H1395; first compound 0.03162 µM,0.47
same,relative viability,NCI-H1395; first compound 0.1 µM,0.491
same,relative viability,NCI-H1395; first compound 0.3162 µM,0.434
same,relative viability,NCI-H1395; first compound 1 µM,0.381
same,relative viability,HCC-44; first compound 0.01 µM,0.154
same,relative viability,HCC-44; first compound 0.03162 µM,0.265
same,relative viability,HCC-44; first compound 0.1 µM,0.16
same,relative viability,HCC-44; first compound 0.3162 µM,0.185
same,relative viability,HCC-44; first compound 1 µM,0.121
same,relative viability,NCI-H650; first compound 0.01 µM,0.453
same,relative viability,NCI-H650; first compound 0.03162 µM,0.46
same,relative viability,NCI-H650; first compound 0.1 µM,0.49
same,relative viability,NCI-H650; first compound 0.3162 µM,0.446
same,relative viability,NCI-H650; first compound 1 µM,0.538
same,relative viability,NCI-H1993; first compound 0.01 µM,0.553
same,relative viability,NCI-H1993; first compound 0.03162 µM,0.504
same,relative viability,NCI-H1993; first compound 0.1 µM,0.53
same,relative viability,NCI-H1993; first compound 0.3162 µM,0.428
same,relative viability,NCI-H1993; first compound 1 µM,0.502
